Ends that are not written are not given here.

The source of these data is patent US20080153756A1, “Novel Peptides and Methods for the Treatment of Inflammatory Disorders” (Auckland Uniservices Limited, priority 2005, published 2008).

Series [1] relates to adhesion of Mn++-activated TK-1 cells (α4+ β7+ β1−) to VCAM-1. As to the kind of experiment: Cell adhesion assay: Mn2+-activated TK-1 cells to VCAM-1-Fc coated wells. Particulars: for maximal inhibition of adhesion to VCAM-1 / inhibition of cell adhesion to VCAM-1: Mn++-activated TK-1 cells; for inhibition of cell adhesion to VCAM-1: highest concentration tested, 50 μM. The class given is cell-based, mouse. The method, then:
The soluble VCAM-1-Fc chimera was produced using the glutamine synthetase gene amplification system. The extracellular portions of human VCAM-1 fused to the Fc domain of human IgG1 was expressed from the pEE14 vector (kindly provided by Dr Chris Bebbington, Celltech Ltd, UK) in CHO K1 cells as described previously (27).
(§1) Lab-Tek 16-well glass slides (Nunc) or flat-bottom 96-well plates (Nunc Maxisorp) were coated overnight at 4° C. with purified VCAM-1-Fc at 10 μg/well in 100 μl of 0.1 M carbonate buffer (pH 9.5). After washing plates were blocked with 100% heat-inactivated FCS, and washed with Hanks balanced salt solution (HBSS) containing 10 mM Hepes, 2 mM Ca^2+ and 2 mM Mn^2+. TK-1 cells were either left unlabeled or labeled with the fluorescent dye chloromethyl fluorescein diacetate (CMFDA; Molecular Probes, Oreg.). For peptide inhibition studies, TK-1 cells were preincubated with peptide in serum-free medium for 30 min at 37° C. and activated by suspension in an Mn^2+-containing buffer (HBSS: 10 mM Hepes containing 2 mM Ca^2+, 2 mM Mn^2+, and 2% FCS). Human IgG1 Ab (10 μg/ml; Sigma) was added to prevent nonspecific capture of cells to the Fc portion of […]. Cells were checked for viability by trypan blue exclusion, added to wells (10^6 cells/well), and incubated for 30 min at 37° C. in a humidified atmosphere of 5% CO2. Non-adherent cells were removed by inverse centrifugation of the plates at 70×g for 5 min followed by gentle pipette washing. The number of unlabeled adherent cells was determined by counting the number of adherent cells in four independent fields at 100× magnification under an inverted microscope. The fluorescence of CMFDA-labeled adherent cells was measured using a VICTOR 1420 multilabel counter (Wallac). Representative data are reported as mean±SD of two independent experiments performed in duplicate. Antibodies against the integrin β7 subunit (Fib504 mAb), and α4β7 complex (DATK32 mAb) were included as positive controls, and added (1:100 dilution of ascites) to cells 20 min prior to the adhesion assay.

Series [2] concerns adhesion of TK-1 (α4β7+ α4β1−) cells to MAdCAM-1. Description: Cell adhesion assay: TK-1 cells to MAdCAM-1-Fc coated plates. In kind it is cell-based, mouse. Particulars: PMA-activated TK-1 cells, peptide up to 50 μM.
Series [3] concerns TK-1 cells. Description: Cell viability of peptide-treated TK-1 cells (trypan blue exclusion). The class given is cell-based, mouse. The settings on record: data not shown. The method, then: as §1, with “Non-adherent cells were removed by inverse centrifugation of the plates at 70×g for 5 min followed by gentle pipette washing.” left out, “Representative data are reported as mean±SD of two independent experiments performed in duplicate. Antibodies against the integrin β7 subunit (Fib504 mAb), and α4β7 complex (DATK32 mAb) were included as positive controls, and added (1:100 dilution of ascites) to cells 20 min prior to the adhesion assay.” left out

For series [4], the target named is T1, soluble VCAM-1-Fc chimera (extracellular portions of human VCAM-1 fused to the Fc domain of human IgG1) (human, UniProt P19320 25-698).
T1 sequence (looked up): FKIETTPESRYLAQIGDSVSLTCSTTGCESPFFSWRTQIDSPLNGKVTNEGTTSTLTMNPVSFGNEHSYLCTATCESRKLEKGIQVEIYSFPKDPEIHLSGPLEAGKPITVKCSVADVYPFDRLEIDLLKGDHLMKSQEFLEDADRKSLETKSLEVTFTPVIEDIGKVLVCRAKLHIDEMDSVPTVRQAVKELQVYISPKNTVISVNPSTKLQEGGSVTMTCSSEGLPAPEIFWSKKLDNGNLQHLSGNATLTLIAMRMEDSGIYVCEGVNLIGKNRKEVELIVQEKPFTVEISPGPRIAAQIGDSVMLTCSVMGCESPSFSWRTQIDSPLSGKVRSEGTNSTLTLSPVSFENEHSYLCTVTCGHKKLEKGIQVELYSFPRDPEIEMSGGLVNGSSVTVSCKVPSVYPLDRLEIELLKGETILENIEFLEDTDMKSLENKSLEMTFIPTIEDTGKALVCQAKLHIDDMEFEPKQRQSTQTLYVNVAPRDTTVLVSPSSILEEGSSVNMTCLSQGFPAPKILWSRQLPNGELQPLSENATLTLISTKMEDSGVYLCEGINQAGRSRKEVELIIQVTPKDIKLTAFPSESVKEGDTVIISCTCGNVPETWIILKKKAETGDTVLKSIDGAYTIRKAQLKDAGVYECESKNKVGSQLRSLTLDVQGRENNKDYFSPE
Description: cell-based or functional assay.

As to `CC[C@H](C)[C@H](NC(=O)[C@H](Cc1ccc(O)cc1)NC(=O)[C@H](CO)NC(=O)[C@H](Cc1c[nH]c2ccccc12)NC(=O)[C@H](CO)NC(=O)[C@H](CC(=O)O)NC(=O)[C@H](CCCCN)NC(=O)[C@H](CCCCN)NC(=O)[C@H](Cc1c[nH]c2ccccc12)NC(=O)[C@H](CCCCN)NC(=O)[C@H](CCSC)NC(=O)[C@H](CCCNC(=N)N)NC(=O)[C@H](CCCNC(=N)N)NC(=O)[C@H](CC(N)=O)NC(=O)[C@H](CCC(N)=O)NC(=O)[C@H](Cc1ccccc1)NC(=O)[C@H](Cc1c[nH]c2ccccc12)NC(=O)[C@@H](NC(=O)[C@H](CCCCN)NC(=O)[C@@H](NC(=O)[C@H](CCC(N)=O)NC(=O)[C@@H](N)CCCNC(=N)N)[C@@H](C)CC)[C@@H](C)CC)C(=O)N[C@@H](CC(N)=O)C(=O)N[C@@H](CO)C(=O)N[C@@H](CCCCN)C(=O)N[C@@H](CO)C(=O)N[C@@H](CC(N)=O)C(=O)N[C@@H](CC(=O)O)C(=O)N[C@@H](CC(=O)O)C(=O)O` [Pen-DSWSYINSKSNDD, DSWSYINSKSNDD], the “inhibition of T cell adhesion to VCAM-1 (in words)” value in series [1] (Mn2+-activated TK-1 cells, FIG. 2A) was “active”. The “maximal inhibition of adhesion to VCAM-1” value in series [1] (at 30 μM) was 72%.
As to DSWS, the “inhibition of PMA-induced T cell adhesion to MAdCAM-1 (in words)” value in series [2] is “inactive”.
As to DSWSY [r9-DSWSY], the “inhibition of cell adhesion to VCAM-1” value in series [1] was determined as 75%.
In the case of “DSWSYINS (not fully specified (N-terminus); also: N-terminal carrier biotinylated penetratin or r9, not given here for this peptide; listed as Homo sapiens) [r9-DSWSYINS]”, the “maximal inhibition of adhesion to VCAM-1” value in series [1] (at 6 μM peptide) is recorded as ~67%. Moreover, the cells killed in series [3] (50 μM peptide) was 15%.
In the case of “KSNDD ({biotinylated r9}-KSNDD; listed as Homo sapiens) [r9-KSNDD]”, the “inhibition of cell adhesion to VCAM-1” value in series [1] is 27%.
The same measure, in the same setting: for QYKSILQEENRRD [Pen-QYKSILQEENRRD] the value was 14%.
Take SWSY (listed as Homo sapiens): the “inhibition of PMA-induced T cell adhesion to MAdCAM-1 (in words)” value in series [2] is recorded as “retained the ability of the parent peptide DSWSY to inhibit T cell adhesion”.
“YINSK ({biotinylated r9}-YINSK; listed as Homo sapiens) [r9-YINSK]”: the “inhibition of cell adhesion to VCAM-1” value in series [1] was found to be 80%.
With “YINSKSNDD (not fully specified (N-terminus); also: N-terminal carrier biotinylated penetratin or r9, not given here for this peptide; listed as Homo sapiens) [r9-YINSKSNDD]”, the “maximal inhibition of adhesion to VCAM-1” value in series [1] (at 6 μM peptide) is ~67%. The “effect on cell viability (in words)” value in series [3] was “no effect”.

B1: integrin α4β7 on mouse TK-1 T lymphoma cells (α4β7+ α4β1-) (receptor)
chain 1: YNLDPENALLYQGPSGTLFGYSVVLHSHGSKRWLIVGAPTASWLSNASVVNPGAIYRCGIRKNPNQTCEQLQSGSPSGEPCGKTCLEERDNQWLGVTLSRQPGENGSIVTCGHRWKNIFYMKSDNKLPTGICYVMPSDLRTELSKRMAPCYKDYTRKFGENFASCQAGISSFYTQDLIVMGAPGSSYWTGTVFVYNITTNQYKAFVDRQNQVKFGSYLGYSVGAGHFRSPHTTEVVGGAPQHEQIGKAYIFSIDENELNIVYEMKGKKLGSYFGASVCAVDLNADGFSDLLVGAPMQSTIREEGRVFVYINSGMGAVMVEMERVLVGSDKYAARFGESIANLGDIDNDGFEDIAIGAPQEDDLRGAVYIYNGRVDGISSTYSQRIEGQQISKSLRMFGQSISGQIDADNNGYVDVAVGAFQSDSAVLLRTRPVVIVEASLSHPESVNRTKFDCTENGLPSVCMHLTLCFSYKGKEVPGYIVLFYNVSLDVHRKAESPSRFYFFSNGTSDVITGSIRVSSSGEKCRTHQAFMRKDVRDILTPIHVEATYHLGHHVITKRNTEEFPPLQPILQQKKEKDVIRKMINFARFCAYENCSADLQVSAKVGFLKPYENKTYLAVGSMKTIMLNVSLFNAGDDAYETTLNVQLPTGLYFIKILDLEEKQINCEVTESSGIVKLACSLGYIYVDRLSRIDISFLLDVSSLSRAHEDLSISVHASCENEGELDQVRDNRVTLTIPLRYEVMLTVHGLVNPTSFVYGSSEENEPETCMAEKLNLTFHVINTGISMAPNVSVKIMVPNSFLPQDDKLFNVLDVQTTTGQCHFKHYGRECTFAQQKGIAGTLTDIVKFLSKTDKRLLYCMKADQHCLDFLCNFGKMESGKEASVHIQLEGRPSILEMDETSSLKFEIKATAFPEPHPKVIELNKDENVAHVFLEGLHHQRPKRHFTIIIITISLLLGLIVLLLISCVMWKAGFFKRQYKSILQEENRRDSWSYVNSKSNDD
chain 2: ELDTKITSSGEAAEWEDPDLSLQGSCQPVPSCQKCILSHPSCAWCKQLNFTASGEAEARRCARREELLARGCPAQELEEPRGRQEVLQDKPLSQGDRGEGATQLAPQRIRVTLRPGEPQKFRVRFLRAAGYPVDLYYLMDLSYSMKDDLERVRQLGHALLVRLQEVTHSVRIGFGSFVDKTVLPFVSTVPSKLHHPCPSRLERCQPPFSFHHVLSLTGDAQAFEREVGRQNVSGNLDSPEGGFDAILQAALCQEQIGWRNVSRLLVFTSDDTFHTAGDGKLGGIFMPSDGRCHLDSNGVYTNSAEFDYPSVGQVAQALTAANIQPIFAVTGATLPVYQELRQLIPKSAVGELSEDSSNVVQLIMDAYDSLSSTVTLEHSPLPPGVSISFESHCKGPEKTEGEAGDRGQCNDVRVNQTVDFWVTLQATHCLPEAHVLRLWALGFSEELTVELHTVCDCNCGDAQPHAPYCSDGQGDLQCGICSCAPGRLGQLCECSEADLSSPDLESGCRAPNGTGPLCSGKGRCQCGRCSCSGQSSGRLCECDDASCERHEGILCGGFGHCQCGVCHCHANHTGRACECSKSVDSCVSPEGGLCSGHGYCKCNRCQCLDGYYGALCDQCLGCKSPCEQYRDCAECGAFGTGPLAANCSVVCADVNVTLTLAPNLDDGWCKERTIDNQLFFFLVEHAASGIVLRVRPQEKGVDHTRAIILGCTGGIVAVGLGLVLAYRLSVEIYDRREYRRFEKEQQQLNWKQDNNPLYKSAITTTVNPRFQGTNGRSPSLSLTREAD
B1: the “IC50 of the cell-permeable peptide Pen-… for inhibition of adhesion of Mn++-activated TK-1 cells to VCAM-1” value in series [4] is 20 µM.
